We go through 40 molecules from patent US12612412B2, “Antiviral heterocyclic compounds” (Enanta Pharmaceuticals, Inc., priority 2021, dated 2026).

SMILES strings stand for the structures.

In one assay the test system is HMPV clinical isolate TN/1501/A1. The assay can be described thus: HMPV antiviral assay Method-B (clinical isolate TN/1501/A1 in LLC-MK2 cells, ATP-Lite readout). It counts as cell-based, Human metapneumovirus (HMPV). The following applies: human metapneumovirus, LLC-MK2, 144 h, hMPV WT1501 (clinical isolate TN/1501/A1), 6 days. On the procedure:
In vitro HMPV antiviral activity was evaluated using the clinical isolate TN/1501/A1 and LLC-MK2 cells (ATCC #CCL-7), an immortalized kidney epithelial cell line from Macaca mulatta. Compounds were resuspended in dimethyl sulfoxide (DMSO) at 10 mM and added to a 384-well source plate. The compounds were diluted and transferred onto 384-well assay plates using the Echo-650 automated liquid handling system (Beckman Coulter, Indiana). The test compounds were assessed in duplicate at a top concentration of 10 μM followed by 3-fold serial dilutions to give a total of 10 concentration points. DMSO control wells were also included on the assay plates and were either infected or not, acting as positive and negative controls. TN/1501/A1 virus infections were performed in-suspension with LLC-MK2 cells. The cells were washed twice with PBS and removed from the cell-culture flask with 0.25% trypsin-EDTA (Thermo Fisher Scientific, MA). The trypsin-EDTA was inactivated by resuspending in 2% fetal bovine serum (FBS) and OptiMEM (ThermoFisher Scientific, MA) containing 1% penicillin-streptomycin. Cells were pelleted by centrifuging for 5 minutes at 800 rpm, the supernatant was removed, and cells were suspended in PBS plus 100 μg/mL CaCl2). This step was performed twice. Cells were then resuspended in serum-free (SF)-OptiMEM containing 4 μg/mL TPCK-Trypsin (Sigma Aldrich, MO), 1% penicillin-streptomycin (ThermoFisher Scientific, MA) and 100 μg/mL CaCl2). Cells were counted and seeded at a density of 5,000 cells/well, 12.5 μL/well. Virus infections were done at a multiplicity of infection (MOI) of 0.014 with 12.5 μL added per well. SF-OptiMEM, 12.5 μL/well, was added to the appropriate wells to serve as a virus-free negative control for the assay. The final concentration of TPCK-trypsin was 2 μg/mL. Plates were incubated at 37° C., 5% CO2 for 6 days. After 6 days incubation, 12.5 μL of ATP-Lite (PerkinElmer, MA) was added to each well and the raw luminescence values were determined using the Envision 2104 (Perkin Elmer, MA). The average of the raw luminescence values for the cells and virus only positive control wells was subtracted from all conditions tested and the percent cell health was determined by dividing these values by the average of the cells only negative control wells. EC50 values were then calculated by non-linear regression using a four-parameter curve logistic equation. The curve fit model employed was XLFit Dose Response One Site Model 200: y=(A+(B/(1+((x/C)^D)))), where A is the minimum y value, B is the maximum y value, C is the log EC50 value, and D is the slope factor. […] EC50 ranges are as follows: A<0.5 μM; B>0.5 μM.
Regarding `COc1cc(C(=O)NC[C@@](O)(c2cc3c(c(-c4cccc(Br)c4F)n2)OC[C@]3(C)C(N)=O)C(F)(F)F)cc2cn(C3CC3)nc12` [Example 959], the EC50 was above 500 nM.
Consider `COc1cc(C(=O)NC[C@](O)(c2cc3c(c(-c4cc(Cl)c(F)c(Cl)c4)n2)OC[C@]3(C)C(N)=O)C2CC2)cc2cc(Cl)c(C)nc12` [Example 681], for which the EC50 was above 500 nM.
In turn, `COc1cc(C(=O)NC[C@](O)(c2cc3c(c(-c4cc(Cl)c(F)c(Cl)c4)n2)OC[C@]3(C)C(N)=O)C2CC2)cc2cc(Br)cnc12` [Example 679] yielded an EC50 above 500 nM.
`COc1cc(C(=O)NC[C@](O)(c2cc3c(c(-c4ccc5c(c4)OC(F)(F)O5)n2)OC[C@]3(C)C(N)=O)C(F)(F)F)cc2cc(Br)c(C)nc12` [Example 770] registered an EC50 below 500 nM.
The same measure, in the same setting: the value for `COc1cc(C(=O)NC[C@](O)(c2nc(-c3ccc4c(c3)OC(F)(F)O4)c3c(c2F)[C@@](C)(C(N)=O)CO3)C2CC2)cc2cc(Br)cnc12` [Example 869] was below 500 nM.
Consider `COc1cc(C(=O)NC[C@](O)(c2cc3c(c(-c4ccc(F)cc4)n2)OC[C@]3(C)C(N)=O)C2CC2)cc2cc(Br)c(C)nc12` [Example 771], for which the EC50 was below 500 nM.
Regarding `Cc1cnc2c(Cl)cc(C(=O)NC[C@](O)(c3cc4c(c(-c5cc(Cl)c(F)c(Cl)c5)n3)OC[C@]4(C)C(N)=O)C3CC3)cc2c1` [Example 682], the EC50 is above 500 nM.
Still for that read-out and setting: the value for `COc1cc(C(=O)NC[C@](O)(c2cc3c(c(-c4ccc(F)c(Br)c4F)n2)OC[C@]3(C)C(N)=O)C2CC2)cc2cc(Br)cnc12` [Example 803] was below 500 nM.
In the case of `COc1cc(C(=O)NC[C@](O)(c2nc(-c3cc(Cl)c(F)cc3F)c3c(c2F)[C@](C)(C(N)=O)CO3)C2CC2)cc2cn(C3CC3)nc12` [Example 868], the EC50 is above 500 nM.
Turning to `COc1cc(C(=O)NC[C@](O)(c2cc3c(c(-c4ccc(Cl)c(F)c4F)n2)OC[C@]3(C)C(N)=O)C2CC2)cc2cc(Br)cnc12` [Example 689], the EC50 was below 500 nM.
For `COc1cc(C(=O)NC[C@](O)(c2cc3c(c(-c4ccc(F)cc4)n2)OC[C@]3(C)C(N)=O)C(F)(F)F)cc2cc(Br)c(C)nc12` [Example 769], the EC50 was below 500 nM.
`COc1cc(C(=O)NC[C@@](O)(c2cc3c(c(-c4cc(Br)c(F)cc4F)n2)OC[C@]3(C)C(N)=O)C(F)(F)F)cc2cn(C3CC3)nc12` [Example 957] registered an EC50 below 500 nM.
With `COc1cc(C(=O)NC[C@](O)(c2cc3c(c(-c4ccc(F)cc4)n2)OC[C@]3(C)C(N)=O)C2(F)CC2)cc2cc(Br)c(C)nc12` [Example 772], the EC50 is below 500 nM.
With `COc1cc(C(=O)NC[C@](O)(c2cc3c(c(-c4c(F)ccc(Cl)c4F)n2)OC[C@]3(C)C(N)=O)C(F)(F)F)cc2cn(C3CC3)nc12` [Example 963], the EC50 is below 500 nM.
On the same count and under the same terms, the value for `COc1cc(C(=O)NC[C@](O)(c2cc3c(c(-c4cc(Cl)c(F)c(Cl)c4)n2)OC[C@]3(C)C(N)=O)C2CC2)cc2cn(C3CC3)nc12` [Example 676] was below 500 nM.
Same read-out and setting: the value for `COc1cc(C(=O)NC[C@](O)(c2nc(-c3ccc4c(c3)OC(F)(F)O4)c3c(c2F)[C@](C)(C(N)=O)CO3)C2CC2)cc2cn(C(F)F)nc12` [Example 866] was above 500 nM; that for `COc1cc(F)c(-c2nc([C@@](O)(CNC(=O)c3cc(OC)c4nn(C5CC5)cc4c3)C(F)(F)F)cc3c2OC[C@]3(C)C(N)=O)c(F)c1` [Example 962] was below 500 nM; that for `COc1cc(C(=O)NC[C@](O)(c2cc3c(c(-c4ccc(F)c(Br)c4F)n2)OC[C@]3(C)C(N)=O)C2CC2)cc2cc(Cl)c(C)nc12` [Example 804] was below 500 nM.
In the case of `COc1cc(C(=O)NC[C@](O)(c2nc(-c3ccc4c(c3)OC(F)(F)O4)c3c(c2F)[C@](C)(C(N)=O)CO3)C2CC2)cc2cn(C3(F)CC3)nc12` [Example 865], the EC50 was above 500 nM.
Same read-out and setting: next, `COc1cc(C(=O)NC[C@](O)(c2cc3c(c(-c4csc5c(F)cccc45)n2)OC[C@]3(C)C(N)=O)C2(F)CC2)cc2cn(C(F)F)nc12` [Example 630]: below 500 nM; `COc1cc(C(=O)NC[C@](O)(c2nc(-c3ccc4c(c3)OC(F)(F)O4)c3c(c2F)[C@](C)(C(N)=O)CO3)C2CC2)cc2cc(Br)cnc12` [Example 870]: above 500 nM.
For the molecule `COc1cc(C(=O)NC[C@](O)(c2cc3c(c(-c4csc5c(F)cccc45)n2)OC[C@]3(C)C(N)=O)C2(F)CC2)cc2cn(C3(F)CC3)nc12` [Example 629], the EC50 is below 500 nM.
On the same count and under the same terms, the value for `COc1cc(C(=O)NC[C@](O)(c2nc(-c3ccc4c(c3)OC(F)(F)O4)c3c(c2F)[C@](C)(C(N)=O)CO3)C2CC2)cc2cn(C3CC3)nc12` [Example 863] was above 500 nM; that for `C[C@@]1(C(N)=O)COc2c(-c3ccc4c(c3)OC(F)(F)O4)nc([C@@](O)(CNC(=O)c3cc(Cl)c4nn(C5CC5)cc4c3)C3CC3)c(F)c21` [Example 864] was above 500 nM.
On the same count and under the same terms, next, `COc1cc(C(=O)NC[C@](O)(c2cc3c(c(-c4cccc(Br)c4F)n2)OC[C@]3(C)C(N)=O)C(F)(F)F)cc2cn(C3CC3)nc12` [Example 960]: below 500 nM; `COc1cc(C(=O)NC[C@](O)(c2cc3c(c(-c4c(F)ccc(F)c4F)n2)OC[C@]3(C)C(N)=O)C(F)(F)F)cc2cn(C3CC3)nc12` [Example 964]: below 500 nM.
`C[C@]1(C(N)=O)COc2c1cc([C@@](O)(CNC(=O)c1ccc3nn(C4CC4)cc3c1)C1CC1)nc2-c1cc(Cl)c(F)cc1F` [Example 690]: the EC50 was below 500 nM.
With `COc1cc(C(=O)NC[C@](O)(c2nc(-c3ccc4c(c3)OC(F)(F)O4)c3c(c2F)[C@](C)(C(N)=O)CO3)C2CC2)cc2cc(Cl)c(C)nc12` [Example 867], the EC50 was above 500 nM.
In turn, `COc1cc(C(=O)NC[C@](O)(c2cc3c(c(-c4cc(Cl)c(F)c(Cl)c4)n2)OC[C@]3(C)C(N)=O)C2CC2)cc2cn(C3(F)CC3)nc12` [Example 678] gave an EC50 below 500 nM.

Another assay deals with genotype A, "Long" strain RSV. The assay can be described thus: RSV-A assay (CPE protection in Hep-2 cells, ATPlite readout). It counts as cell-based, Human respiratory syncytial virus (HRSV). The following applies: human respiratory syncytial virus, RSV-A Long strain, MOI 0.1, CPE protection, read-out: Human RSV-A (“Long”) EC50. An outline of the steps: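 Hep-2, 8,000 cells/well, MOI 0.1 (PFU- or TCID50-based); 2-fold compound series, duplicates; 5 d incubation; ATPlite luminescence readout; EC50.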
A general note: In ATP-based viability assays light output follows the ATP content of the culture.
On to `C[C@]1(C(N)=O)COc2c1cc([C@@](O)(CNC(=O)c1cc(OC3CC3)c3nn(C(F)F)cc3c1)C1CC1)nc2-c1ccc(F)c(F)c1Cl` [Example 1197], for which the EC50 was below 200 nM.
On to `[2H]c1nc2c(OC)cc(C(=O)NC[C@](O)(c3cc4c(c(-c5cc(Cl)c(F)cc5F)n3)OC[C@]4(C)C(N)=O)C3CC3)cc2cc1Br` [Example 1216], for which the EC50 was below 200 nM.
Turning to `COc1cc(C(=O)NC[C@@](O)(c2cc3c(c(-c4ccc(C5CC5)cc4)n2)OC[C@]3(C)C(N)=O)C(F)(F)F)cc2cn(C3CC3)nc12` [Example 892], the EC50 was above 200 nM.

The same assay, now with this note: human respiratory syncytial virus, genotype A “Long” strain RSV, MOI 0.1, CPE protection, read-out: Human RSV-A (“Long”).
For the molecule `COc1cc(C(=O)NC[C@](O)(c2cc3c(c(-c4ccc(F)cc4)n2)OC[C@@]3(CF)C(N)=O)C(F)(F)F)cc2cc(Cl)c(C)nc12` [Example 284], the EC50 is below 200 nM.
For the molecule `COc1cc(C(=O)NC[C@](O)(c2cc3c(c(-c4ccc(F)cc4)n2)OC[C@]3(CF)C(N)=O)C(F)(F)F)cc2cc(Cl)c(C)nc12` [Example 285], the EC50 is below 200 nM.
Regarding `C[C@]1(C(N)=O)COc2c1cc([C@@](O)(CNC(=O)c1ccc(F)c3cc[nH]c13)C(F)(F)F)nc2-c1ccc(F)cc1` [Example 348], the EC50 is below 200 nM.
For `C[C@]1(C(N)=O)COc2c1cc([C@@](O)(CNC(=O)c1cnn(-c3ccccc3)c1)C(F)(F)F)nc2-c1ccc(F)cc1` [Example 444], the EC50 was below 200 nM.
As for `C[C@]1(C(N)=O)COc2c1cc([C@@](O)(CNC(=O)c1cc(OC3CC3)c3[nH]ccc3c1)C(F)(F)F)nc2-c1ccc(F)cc1` [Example 206], the EC50 was below 200 nM.
`COc1cc(C(=O)NC[C@](O)(c2cc3c(c(-c4ccc(F)cc4)n2)OC[C@]3(CF)C(N)=O)C(F)(F)F)cc2cccnc12` [Example 283]: the EC50 is below 200 nM.
`C[C@]1(C(N)=O)COc2c1cc([C@@](O)(CNC(=O)c1cc(F)c3oc(N)nc3c1)C(F)(F)F)nc2-c1ccc(F)cc1` [Example 90]: the EC50 was below 200 nM.
For the molecule `COC(=O)Nc1cc(C(=O)NC[C@](O)(c2cc3c(c(-c4ccc(F)cc4)n2)OC[C@]3(C)C(N)=O)C(F)(F)F)ccc1F` [Example 340], the EC50 was below 200 nM.
